Data set [1] deals with two-hit ALI model. In words: Lung histology (H&E) and ImageJ lung injury score in two-hit ALI rat model. It is filed as in vivo. The method, then:
The inventors' previously developed two-hit ALI model is initiated by infusion of LPS (first hit) into Wistar rats followed 30 minutes later with transfusion of 30% incompatible erythrocytes (second hit) and sacrifice of the animals 4 hours later. […] Lungs were isolated from animals four hours after the second hit and tissues evaluated by H&E staining.
To determine the level of lung tissue protection by RLS-0071 in this model, grading of H&E sections for cell wall thickening for the different treatment groups was performed. Images of randomized microscopy fields were converted to black and white and quantified by ImageJ (NIH) analysis. The ratio of black to white pixels was then determined as a measure of lung damage: as lung damage increased, the alveolar walls thickened, shrinking the alveolar space (white space), resulting in a decrease in white pixels and increase in black pixels.

Data set [2] has as its system C5a. In words: C5a ELISA in plasma, two-hit ALI rat model. The format is in vivo. Here is the method:
C5a was then measured in each sample by ELISA and absorbance was read at 450 nm. Two replicates for each animal were measured for every time point. Data are means and standard error of the mean. Statistical analysis was performed using were conducted using bootstrap approach or Welch's ANOVA. * denotes p=0.010, ** denotes p=0.004, *** denotes p=0.002, and **** denotes p≤0.001 compared to 2-hit animals.
Animals receiving the 2-hit insult had substantially more C5a production at the 1-hour time point as expected (FIG. 20).
RLS-0071 was tested in a two-hit rat model of ALI. The first insult is neutrophil stimulation with lipopolysaccharide (LPS) followed 30 minutes later by a second insult of classical complement activation with incompatible erythrocytes. This model can produce dramatic neutrophil infiltration into alveolar walls, thickening the walls and reducing alveolar airspace by 85%. […] Given the short 5-minute half-life of C5a, the measurement of elevated C5a at 60 minutes is consistent with tissue generated C5a.
For orientation: An ELISA detects its analyte on a solid surface through an enzyme-linked reagent.

The subject of data set [3] is classical complement pathway mediated hemolysis. In words: Free hemoglobin in plasma (intravascular hemolysis), two-hit ALI rat model. To be noted: 10 mg/kg IV; compared with saline treatment. It is filed as in vivo. Here is the method:
Complement inhibition in the bloodstream of rats in the 2-hit ALI model was measured by two different methods. The first method measured free hemoglobin in the plasma of the rats over time, by measuring intravascular hemolysis of the transfused incompatible erythrocytes.

Data set [4] relates to mCH50. Description: mCH50 ex vivo on plasma of two-hit ALI rats. The format is in vivo, rat. As to conditions: 10 mg/kg IV; compared with saline treated control.
Data set [5] concerns human neutrophils. In words: Human neutrophil adhesion to glass slides with or without fibrinogen. It is filed as cell-based. As to conditions: increasing concentrations, 2.5 hours. Here is the method: To ascertain whether the binding of PA-dPEG24 has an effect on the ability of neutrophils to adhere to surfaces in vitro, purified human neutrophils were incubated with increasing concentrations of PA-dPEG24, washed twice with PBS, placed on the glass slides, and then incubated in a humidified 37° C. incubator in the presence of 5% C02 for 2.5 hours. Slides were subsequently stained with DAPI (1:1000 in 2% BSA) followed by imaging at 20× by fluorescence microscopy. Quantification of the amount of cell staining was performed using ImageJ analysis (NIH). […] To ascertain if adherence of neutrophils was altered on glass slides pre-coated with fibrinogen, purified human neutrophils were incubated with increasing concentrations of PA-dPEG24, washed twice with PBS, placed on the fibrinogen-coated glass slides, and then incubated in a humidified 37° C. incubator in the presence of 5% C02 for 2.5 hours. Slides were subsequently stained with DAPI (1:1000 in 2% BSA) followed by imaging at 20× by fluorescence microscopy. Quantification of the amount of cell staining was performed using ImageJ analysis (NIH).

Data set [6] relates to human neutrophils. In words: Human neutrophil viability, Cell Counting Kit-8. As to conditions: cells in PBS or RPMI; compared to buffer alone. It is filed as cell-based. The method, then: Cell viability in the presence of increasing amounts of PA-dPEG24 was determined using the Cell Counting Kit-8 (Dojindo). Cell Counting Kit-8 (CCK-8) is a sensitive colorimetric assay for the determination of cell viability in cell proliferation and cytotoxicity assays. The highly water-soluble tetrazolium salt, WST-8, is reduced by dehydrogenase activities in cells to give a yellow-color formazan dye, which is soluble in the tissue culture media. The amount of the formazan dye, generated by the activities of dehydrogenases in cells, is directly proportional to the number of living cells. Neutrophils were isolated from whole blood. Briefly, heparinized whole blood was collected from four different individuals (n=4). The blood was spun on a Hypaque/Ficoll gradient. The pellet was collected, and 3% dextran was added for 20 minutes. The supernatant was collected and washed several times. After a red blood cell lysis, the neutrophils were resuspended in either PBS or RPMI at a concentration of 1.0×10^6 cells/mL. ‘Fresh’ neutrophils were taken at this point and 100 uL (100,000 cells/well) were added to a 96-well plate. 10 uL of CCK-8 (Dojindo Molecular Technologies) was added to each well for 2 hours at 37 C. Absorbance at 450 nm was read to determine viability. […] Absorbance at 450 nm was read to determine viability.
On the technique in general: Tetrazolium dyes change colour on reduction, which living cells bring about.

For data set [7], the target named is LFA-1 (Homo sapiens, UniProt P05107+P20701). Description: ELISA-type plate binding assay, LFA-1. The method, then: To address this hypothesis, an ELISA-type binding assay was developed in which neutrophil ligands (LFA-1 and MAC-1/CR3) and […] cell ligands (ICAM-1/CD54 and ICAM-2/CD102) were bound to microtiter plates. Plates were then incubated with increasing amounts of PA-dPEG24 in 1% gelatin/PBS buffer probed with antibody to the peptide and developed.
LFA-1, sequence (P20701 26-1170): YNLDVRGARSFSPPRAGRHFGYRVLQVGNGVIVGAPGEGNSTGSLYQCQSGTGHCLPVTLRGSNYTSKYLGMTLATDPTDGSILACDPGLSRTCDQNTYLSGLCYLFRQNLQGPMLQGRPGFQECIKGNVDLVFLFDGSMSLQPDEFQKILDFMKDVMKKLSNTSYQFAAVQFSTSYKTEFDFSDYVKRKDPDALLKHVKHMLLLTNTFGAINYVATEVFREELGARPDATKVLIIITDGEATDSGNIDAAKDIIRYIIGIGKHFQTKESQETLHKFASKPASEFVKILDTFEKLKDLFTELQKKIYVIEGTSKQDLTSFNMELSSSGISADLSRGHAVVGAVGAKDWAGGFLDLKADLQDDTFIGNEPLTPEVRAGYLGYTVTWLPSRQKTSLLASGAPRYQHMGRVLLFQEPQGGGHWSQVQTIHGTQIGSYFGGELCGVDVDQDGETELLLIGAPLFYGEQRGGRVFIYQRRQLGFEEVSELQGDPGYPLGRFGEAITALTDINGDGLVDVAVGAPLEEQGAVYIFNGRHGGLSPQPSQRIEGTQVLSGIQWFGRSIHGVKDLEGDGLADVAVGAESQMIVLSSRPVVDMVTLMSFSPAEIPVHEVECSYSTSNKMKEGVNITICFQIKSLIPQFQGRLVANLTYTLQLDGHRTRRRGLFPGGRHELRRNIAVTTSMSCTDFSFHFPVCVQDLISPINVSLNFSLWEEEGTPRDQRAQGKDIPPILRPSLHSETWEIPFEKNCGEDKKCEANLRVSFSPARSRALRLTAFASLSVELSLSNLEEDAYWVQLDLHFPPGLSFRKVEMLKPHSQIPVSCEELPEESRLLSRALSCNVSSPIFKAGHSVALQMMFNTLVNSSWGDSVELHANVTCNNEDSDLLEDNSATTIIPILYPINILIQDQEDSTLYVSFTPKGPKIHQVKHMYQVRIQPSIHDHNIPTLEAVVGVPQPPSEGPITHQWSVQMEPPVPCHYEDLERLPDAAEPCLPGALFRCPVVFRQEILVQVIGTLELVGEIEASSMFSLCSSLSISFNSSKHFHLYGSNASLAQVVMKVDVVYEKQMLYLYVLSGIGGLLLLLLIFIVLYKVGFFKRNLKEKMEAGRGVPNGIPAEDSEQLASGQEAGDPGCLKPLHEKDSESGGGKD
LFA-1, sequence (P05107 23-769): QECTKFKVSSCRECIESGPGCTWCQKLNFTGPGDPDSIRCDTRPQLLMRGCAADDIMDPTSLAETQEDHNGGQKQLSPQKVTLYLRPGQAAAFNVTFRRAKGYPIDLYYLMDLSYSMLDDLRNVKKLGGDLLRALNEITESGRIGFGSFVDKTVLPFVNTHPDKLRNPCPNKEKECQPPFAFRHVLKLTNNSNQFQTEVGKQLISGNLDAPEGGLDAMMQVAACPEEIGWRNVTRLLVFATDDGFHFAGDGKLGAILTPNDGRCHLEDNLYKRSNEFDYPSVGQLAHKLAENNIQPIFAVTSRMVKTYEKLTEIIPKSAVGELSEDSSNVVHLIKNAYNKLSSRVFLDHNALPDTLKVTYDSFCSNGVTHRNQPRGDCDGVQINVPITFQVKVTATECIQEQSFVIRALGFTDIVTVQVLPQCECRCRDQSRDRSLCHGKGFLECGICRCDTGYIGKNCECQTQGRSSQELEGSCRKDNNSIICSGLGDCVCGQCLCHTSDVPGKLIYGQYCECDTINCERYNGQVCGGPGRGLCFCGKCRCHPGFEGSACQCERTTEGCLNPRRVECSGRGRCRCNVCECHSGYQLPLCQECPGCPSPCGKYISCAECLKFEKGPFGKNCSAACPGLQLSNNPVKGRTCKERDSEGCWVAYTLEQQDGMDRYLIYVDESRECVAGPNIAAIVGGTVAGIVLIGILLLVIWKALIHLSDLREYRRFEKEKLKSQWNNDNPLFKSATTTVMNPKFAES
To ascertain if PA-dPEG24 could bind ICAM-1 and LFA-1 in plasma, these receptors were coated onto microtiter plates and then incubated with human plasma containing increasing amounts of PA-dPEG24, probed with antibody to the peptide and then developed.

The conditions of data set [8]: 1 hour after IVT injection; compared to saline.
The test system of data set [9] is MPO. Description: OVA/LPS rat asthma model, MPO in BALF (colorimetric). As to conditions: vs Day 24 asthma animals.

Structures are written as SMILES.

`CC[C@H](C)[C@H](N)C(=O)N[C@@H](C)C(=O)N[C@@H](CC(C)C)C(=O)N[C@H](C(=O)N[C@@H](CC(C)C)C(=O)N[C@@H](CCC(=O)O)C(=O)N1CCC[C@H]1C(=O)N[C@H](C(=O)N[C@@H](CS)C(=O)N[C@@H](CS)C(=O)N[C@@H](CCC(N)=O)C(=O)N[C@@H](CCC(=O)O)C(=O)N[C@@H](CCCNC(=N)N)C(=O)N[C@@H](C)C(=O)N[C@@H](C)C(=O)NCCOCCOCCOCCOCCOCCOCCOCCOCCOCCOCCOCCOCCOCCOCCOCCOCCOCCOCCOCCOCCOCCOCCOCCOCCC(=O)O)[C@@H](C)CC)[C@@H](C)CC` [RLS-0071]: the “lung injury score (ratio of black to white pixels)” value in [1] (10 mg/kg prophylactic dose, p=0.002 vs untreated 2-hit animals) was “significant reduction in lung damage”; in [1] (40 mg/kg prophylactic dose, p<0.001 vs untreated 2-hit animals), “this effect was enhanced”; in data set [1] (rescue 40 mg/kg at 0.5, 60, 90, 120 and 180 minutes after erythrocyte transfusion, all p<0.001), “significant reduction in lung damage”. Also, the “lung damage by H&E histology” value in data set [1] (prophylactic 10, 40 or 160 mg/kg 2 minutes before incompatible erythrocyte transfusion, lungs 4 h after second hit) is given as “marked reduction in lung damage”. Also, in data set [1] (rescue 40 mg/kg at 0.5, 60, 90, 120 and 180 min after second hit), the “lung tissue architecture by H&E histology” value was “lung tissue architecture resembling that of sham animals”. In addition, the “decrease in C5a generation in the tissues” value in [2] (10 mg/kg IV) is 50%. The “C5a level in blood” value is given as “significantly reduced levels of C5a” in data set [2] (all rescue doses 40 mg/kg (0.5-180 minutes), 1-hour time point, vs 2-hit only animals); “significant reduction of C5a” in data set [2] (prophylactic 10, 40 and 160 mg/kg, 5-minute time point, p<0.001 each dose); “reduction of C5a at the 1-hour time points” in [2] (prophylactic doses, 1-hour time point, 10 mg/kg reaching significance (p=0.002)); “significantly decreased levels of C5a” in data set [2] (rescue 40 mg/kg at 0.5, 60, 90 and 120 minutes (not 180 minutes), 5-minute time point). For the same molecule, in data set [3], the “inhibition of intravascular hemolysis (free hemoglobin in plasma)” value is recorded as “no inhibition of classical complement pathway mediated hemolysis”. Moreover, the “inhibition of mCH50” value in data set [4] is recorded as “did not inhibit mCH50”. Besides, the “neutrophil adherence to fibrinogen-coated glass slides” value in data set [5] (fibrinogen-coated glass) was “dose-dependently decreased neutrophil adherence”. In addition, the “number of neutrophils adhered to glass slides” value in data set [5] (untreated glass) is reported as “dose-dependently reduced the number of cells adhered to the slides”. The “neutrophil viability (CCK-8, absorbance 450 nm)” value in data set [6] is on record as “dose-dependent increase in viability”. The “binding to LFA-1” value in data set [7] (1% gelatin/PBS buffer) and in [7] (in human plasma) was “bound dose-dependently” each time. Moreover, in [8], the “DAB staining of retinal tissue” value was “significant DAB signal”. In addition, the “MPO levels in the BALF” value in data set [9] (prophylactic 160 mg/kg IV, p=0.12) was “reduction in MPO levels that did not reach statistical significance”; in data set [9] (rescue 160 mg/kg IV, P=0.05), “significant reduction in MPO levels”.

For the origin of these results see patent US20240010681A1, “PEPTIDES AND METHODS OF USE” (REALTA LIFE SCIENCES, INC., priority 2020, published 2024).
